The text below walks through data of patent publication US6750245B2, “C7 carbamate substituted taxanes” (FSU Research Foundation, Inc., priority 2000, dated 2004).

The test has as its system HCT116. Kind of test: In vitro cytotoxicity measured by the cell colony formation assay. The test is classed as cell-based. The note with it: HCT116 cells; drug concentration producing 50% inhibition of colony formation; incubated with drugs 72 h at 37° C.; colonies counted after 7 days; read-out: IN VITRO ID 50 (nm) HCT116. As for the experimental part: In Vitro Cytotoxicity Measured by the Cell Colony Formation Assay
Four hundred cells (HCT116) were plated in 60 mm Petri dishes containing 2.7 mL of medium (modified McCoy's 5a medium containing 10% fetal bovine serum and 100 units/mL penicillin and 100 µg/mL streptomycin). The cells were incubated in a CO2 incubator at 37° C. for 5 h for attachment to the bottom of Petri dishes. The compounds identified in Example 2 were made up fresh in medium at ten times the final concentration, and then 0.3 mL of this stock solution was added to the 2.7 mL of medium in the dish. The cells were then incubated with drugs for 72 h at 37° C. At the end of incubation the drug-containing media were decanted, the dishes were rinsed with 4 mL of Hank's Balance Salt Solution (HBSS), 5 mL of fresh medium was added, and the dishes were returned to the incubator for colony formation. The cell colonies were counted using a colony counter after incubation for 7 days.

SMILES strings stand for the structures.

As for `C/C=C/C(=O)N[C@@H](c1ccco1)[C@@H](O)C(=O)O[C@H]1C[C@@]2(O)[C@@H](OC(=O)c3ccccc3)C3[C@](C)(C(=O)[C@H](O)C(=C1C)C2(C)C)[C@@H](OC(=O)NCC)C[C@H]1OC[C@@]31OC(C)=O` (some centres unmarked) [Compound 5822], the IC50 was less than 10 nM.
For `CC(=O)O[C@@]12CO[C@@H]1C[C@H](OC(=O)NC(C)(C)C)[C@@]1(C)C(=O)[C@H](O)C3=C(C)[C@@H](OC(=O)[C@H](O)[C@@H](NC(=O)OC(C)(C)C)c4ccco4)C[C@@](O)([C@@H](OC(=O)c4ccccc4)C12)C3(C)C` (some centres unmarked) [Compound 5454] the value was less than 10 nM; for `CCC(C)(C)OC(=O)N[C@@H](c1ccco1)[C@@H](O)C(=O)O[C@H]1C[C@@]2(O)[C@@H](OC(=O)c3ccccc3)C3[C@](C)(C(=O)[C@H](O)C(=C1C)C2(C)C)[C@@H](OC(=O)Nc1ccccc1)C[C@H]1OC[C@@]31OC(C)=O` (some centres unmarked) [Compound 6399], less than 10 nM; for `CCCNC(=O)O[C@H]1C[C@H]2OC[C@@]2(OC(C)=O)C2[C@H](OC(=O)c3ccccc3)[C@]3(O)C[C@H](OC(=O)[C@H](O)[C@@H](NC(=O)OC(C)(C)C)c4ccco4)C(C)=C([C@@H](O)C(=O)[C@@]21C)C3(C)C` (some centres unmarked) [Compound 5665], greater than 50 nM.
The same measure for `CC(=O)O[C@@]12CO[C@@H]1C[C@H](OC(=O)Nc1ccc(F)c(F)c1)[C@@]1(C)C(=O)[C@H](O)C3=C(C)[C@@H](OC(=O)[C@H](O)[C@@H](NC(=O)C=C(C)C)c4ccco4)C[C@@](O)([C@@H](OC(=O)c4ccccc4)C12)C3(C)C` (some centres unmarked) [Compound 5522]: less than 1 nM.
For `CC(=O)O[C@@]12CO[C@@H]1C[C@H](OC(=O)Nc1ccccc1)[C@@]1(C)C(=O)[C@H](O)C3=C(C)[C@@H](OC(=O)[C@H](O)[C@@H](NC(=O)C=C(C)C)c4ccco4)C[C@@](O)([C@@H](OC(=O)c4ccccc4)C12)C3(C)C` (some centres unmarked) [Compound 5535, N-Debenzoyl-N-isobutenyl-3′-desphenyl-3′-(2-furyl)-7-phenylcarbamoyl taxol] the value was less than 1 nM; for `CCNC(=O)O[C@H]1C[C@H]2OC[C@@]2(OC(C)=O)C2[C@H](OC(=O)c3ccccc3)[C@]3(O)C[C@H](OC(=O)[C@H](O)[C@@H](NC(=O)OC(C)(C)C)c4ccco4)C(C)=C([C@@H](O)C(=O)[C@@]21C)C3(C)C` (some centres unmarked) [Compound 5393], less than 1 nM.
Take `C/C=C/C(=O)N[C@@H](c1ccco1)[C@@H](O)C(=O)O[C@H]1C[C@@]2(O)[C@@H](OC(=O)c3ccccc3)C3[C@](C)(C(=O)[C@H](O)C(=C1C)C2(C)C)[C@@H](OC(=O)Nc1ccccc1)C[C@H]1OC[C@@]31OC(C)=O` (some centres unmarked) [Compound 5757]: the IC50 was less than 10 nM.
The same measure for `CC(=O)O[C@@]12CO[C@@H]1C[C@H](OC(=O)Nc1ccc(F)c(F)c1)[C@@]1(C)C(=O)[C@H](O)C3=C(C)[C@@H](OC(=O)[C@H](O)[C@@H](NC(=O)OC(C)(C)C)c4ccco4)C[C@@](O)([C@@H](OC(=O)c4ccccc4)C12)C3(C)C` (some centres unmarked) [Compound 5415]: less than 1 nM.
For `CC(=O)O[C@@]12CO[C@@H]1C[C@H](OC(=O)NC1CCCCC1)[C@@]1(C)C(=O)[C@H](O)C3=C(C)[C@@H](OC(=O)[C@H](O)[C@@H](NC(=O)OC(C)(C)C)c4ccco4)C[C@@](O)([C@@H](OC(=O)c4ccccc4)C12)C3(C)C` (some centres unmarked) [Compound 5373], the IC50 is less than 10 nM.
For `CCNC(=O)O[C@H]1C[C@H]2OC[C@@]2(OC(C)=O)C2[C@H](OC(=O)c3ccccc3)[C@]3(O)C[C@H](OC(=O)[C@H](O)[C@@H](NC(=O)C=C(C)C)c4ccco4)C(C)=C([C@@H](O)C(=O)[C@@]21C)C3(C)C` (some centres unmarked) [Compound 5588] the value was less than 1 nM; for `CC=CC(=O)NC(c1ccco1)C(O)C(=O)OC1CC2(O)C(OC(=O)c3ccccc3)C3C4(OC(C)=O)COC4CC(OC(=O)Nc4ccc(F)c(F)c4)C3(C)C(=O)C(O)C(=C1C)C2(C)C` (centres unmarked) [Compound 5800], less than 10 nM.
For `C/C=C/C(=O)N[C@@H](c1ccco1)[C@@H](O)C(=O)O[C@H]1C[C@@]2(O)[C@@H](OC(=O)c3ccccc3)C3[C@](C)(C(=O)[C@H](O)C(=C1C)C2(C)C)[C@@H](OC(=O)NC1CCCCC1)C[C@H]1OC[C@@]31OC(C)=O` (some centres unmarked) [Compound 5895] the value was less than 1 nM; for `CCC(C)(C)OC(=O)N[C@@H](c1ccco1)[C@@H](O)C(=O)O[C@H]1C[C@@]2(O)[C@@H](OC(=O)c3ccccc3)C3[C@](C)(C(=O)[C@H](O)C(=C1C)C2(C)C)[C@@H](OC(=O)Nc1ccc(F)c(F)c1)C[C@H]1OC[C@@]31OC(C)=O` (some centres unmarked) [Compound 6404], less than 10 nM.
